Assays:
[1] = system: collagen induced arthritis in mice; conditions: calcitriol administered to mice; cited from earlier work
129x1/SvJ male mice = test: Serum calcium after calcitriol feeding, 129x1/SvJ male mice; format: in vivo, mouse
Method: (§1) In order to determine serum calcium, blood was collected, allowed to clot, and centrifuged (5,000×g for 10 minutes) at 6° C. The serum was decanted and stored frozen at −20° C. The samples, standards, and buffer blanks (2 μL each) were aliquoted into duplicate wells of a 96-well plate. Calcium reagent working solution (0.25 mL), prepared according to the manufacturer's directions (Sigma Diagnostics, St. Louis, Mo.), was added to each well, and the absorbance at 570 nm was measured.

C3H/HeJ male mice = test: Serum calcium after calcitriol feeding, C3H/HeJ male mice; format: in vivo, mouse
Method: as §1

EAE in mice = conditions: cited from earlier work
[2] = system: DSS-induced colitis in 129X1/SvJ male mice; test: Treatment at the first signs of DSS-induced colitis in 129X1/SvJ mice; format: in vivo, mouse
From the text: The 129×1/SvJ strain is genetically similar to the 129/Ola strain and to the 129/SvPas strain, which is less susceptible to DSS-induced colitis than C3H/HeJ.

[3] = system: DS-induced colitis in C3H/HeJ male mice; test: Calcitriol prevention of DS-induced colitis; format: in vivo, mouse; conditions: 50 ng/day in diet from day −7; 1% DS days 0 to 5; terminated day 27
[4] = given before EAE induction or at stage 1 EAE
[5] = 50 ng/d from day 4 of 1% DSS, terminated 21 days later

Structure (SMILES): C=C1/C(=C\C=C2/CCC[C@]3(C)[C@@H]([C@H](C)CCCC(C)(C)O)CC[C@@H]23)C[C@@H](O)C[C@@H]1O [Calcitriol, 1,25 dihydroxyvitamin D3]
- Disease induction for collagen induced arthritis [1]: blocked disease induction
- Serum Calcium 129x1/SvJ male (129x1/SvJ male mice; 10 ng/d for two weeks): 12.4 ± 0.6 mg/dL
- Serum Calcium 129x1/SvJ male (129x1/SvJ male mice; 20 ng/d for two weeks): 11.5 ± 0.1 mg/dL
- Serum Calcium 129x1/SvJ male (129x1/SvJ male mice; 50 ng/d for two weeks): 11.5 ± 0.4 mg/dL
- Serum Calcium 129x1/SvJ male (129x1/SvJ male mice; 100 ng/d for two weeks): 11.1 ± 1.1 mg/dL
- Tolerability of the calcitriol doses (129x1/SvJ male mice; mouse, in vivo): well tolerated
- Serum Calcium C3H/HeJ male (C3H/HeJ male mice; 10 ng/d for two weeks): 10.5 ± 2.1 mg/dL
- Serum Calcium C3H/HeJ male (C3H/HeJ male mice; 20 ng/d for two weeks): 10.1 ± 2.7 mg/dL
- Serum Calcium C3H/HeJ male (C3H/HeJ male mice; 50 ng/d for two weeks): 9.9 ± 0.6 mg/dL
- Serum Calcium C3H/HeJ male (C3H/HeJ male mice; 100 ng/d for two weeks): 10.1 ± 1.8 mg/dL
- Tolerability of the calcitriol doses (C3H/HeJ male mice; mouse, in vivo): well tolerated
- Disease induction for EAE (EAE in mice; calcitriol administered to mice): blocked disease induction
- Clonal expansion of Th1 cells producing IFN-γ and TNF-α (EAE in mice; [4]): arrested the clonal expansion of Th1 cells
- Transcript accumulation for TGF-β1 and IL-4 in central nervous system and lymph nodes (EAE in mice; [4]): stimulated an increase in transcript accumulation
- Colon Histopathology, Distal colon ([2]; 50 ng/d from day 4 of 1% DSS): 0.6 ± 0.9
- Colon Histopathology, Middle colon ([2]; 50 ng/d from day 4 of 1% DSS): 0 ± 0
- Colon Histopathology, Rectum + anus ([2]; 50 ng/d from day 4 of 1% DSS): 0.2 ± 0.4
- Colon histopathology, Proximal colon ([2]; 50 ng/d from day 4 of 1% DSS): 0.4 ± 0.8
- Colon histopathology, Sum ([2]; 50 ng/d from day 4 of 1% DSS): 1.2 ± 1.8
- Peak fecal hemoglobin ([2]; 50 ng/d from day 4 of 1% DSS, 1 cycle, terminated 21 days later): 1.3 ± 1.2 mg/g
- Terminal Serum Ca [2, 5]: 9.7 ± 3.2 mg/dL
- Terminal weight [2, 5]: 26.4 ± 3.3 g
- Colon histopathology compared to the mock-treated and prednisolone-treated mice ([2]; three weeks later): significant reduction in colon histopathology
- Terminal weight [3]: 28.0 ± 2.9 g

— patent US6989377B2, “Treating vitamin D responsive diseases” (priority 1999, dated 2006)
